Laboratory results from article PMC7253423, “Quassinoid analogs with enhanced efficacy for treatment of hematologic malignancies target the PI3Kγ isoform” (Communications Biology, 2020).
Where “and” joins values, the source holds several entries; their conditions need not be identical. Identical values can stand only once.

Key:
[1] = Body weight of xenograft mice; type: in vivo, NOD/SCID mice; details: individual mice, Fig S3i, in g (unit assumed)
Experimental: (§1) Six-week-old male NOD.CB17-Prkdc^scid/J (NOD/SCID) mice (Jackson Labs, Bar Harbor, ME, USA) were used as the human-in-mouse xeno-transplantation model. MOLM14 cells (1 × 10^7 cells) were injected into the subcutaneous space on the left flank of the mice. […] Body weight and tumor size were monitored before every injection. After treatment for 2 weeks, the mice were euthanized by CO2 inhalation and the tumors were carefully excised. The tumor volume (mm^3) was measured and calculated using the formula (a × b × b)/2 (a, the largest diameter of two measurements; b, the smallest diameter of two measurements).

PBMC = assay: Cytotoxicity, cell viability assay in normal cells; type: cell-based, human; details: Fig 5c
Description: Human peripheral blood mononuclear cells (PBMCs), normal T-cells and B-cells were provided by the University of Pennsylvania Human Immunology Core (HIC), and Patient-derived xenografts (PDXs) were obtained from Fox Chase Cancer Center (FCCC). These samples were from different unidentified and healthy donors with written, informed consent. All the procedures were approved by the Institutional Review Board (IRB) and conducted according to the declarations of Helsinki protocols.
(§2) 5000 cells as indicated were cultured in 96-well plate with 100 μl of media. […] After treatment, the cells were incubated with 100 μl buffer for 10 min at room temperature following the instructions of CellTiter-Glo kit (Promega, Madison, WI). Luminescence was detected using a multi-mode reader Cytation 5 (BioTek, Winooski, VT). […] Two independent experiments done in duplicates were performed.

[2] = test system: hematologic malignancies derived cell lines; assay: Cell viability assay, panel of hematologic malignancy derived cell lines; type: cell-based, human; details: 100 nM, 72 h, lymphoma, leukemia and multiple myeloma cell lines (13 cell lines for analogs)
Experimental: 5000 cells as indicated were cultured in 96-well plate with 100 μl of media. On the next day, Brusatol or associated analogs were added once to the cells without media change. After treatment, the cells were incubated with 100 μl buffer for 10 min at room temperature following the instructions of CellTiter-Glo kit (Promega, Madison, WI). Luminescence was detected using a multi-mode reader Cytation 5 (BioTek, Winooski, VT). […] Two independent experiments done in duplicates were performed.

MOLM14 xenografts = assay: In vivo tumorigenic assay using xenografts, tumor size; design: species or system NOD/SCID mice; details: MOLM14 xenograft
Experimental: as §1

Raji cells = assay: Cell viability assay (CellTiter-Glo luminescence); type: cell-based, human; details: Homo sapiens, analogs, 72 h, Fig. 5c, read-out: IC50
Experimental: as §2

Row | Compound | Body weight ([1]; 0d) | Body weight ([1]; 2d) | Body weight ([1]; 4d) | Body weight ([1]; 6d) | Body weight ([1]; 8d) | Body weight ([1]; 10d) | Body weight ([1]; 12d) | Cell viability, raw luminescence reading (PBMC; Con. 0.01 μM) | Cell viability, raw luminescence reading (PBMC; Con. 0.039 μM) | Cell viability, raw luminescence reading (PBMC; Con. 0.156 μM) | Cell viability, raw luminescence reading (PBMC; Con. 0.625 μM) | Cell viability, raw luminescence reading (PBMC; Con. 10 μM) | inhibition of cell viability in panel of cell lines [2] | tumor size (Fig 5d&5e), individual mice (MOLM14 xenografts; 0d) | tumor size (Fig 5d&5e), individual mice (MOLM14 xenografts; 2d) | tumor size (Fig 5d&5e), individual mice (MOLM14 xenografts; 4d) | tumor size (Fig 5d&5e), individual mice (MOLM14 xenografts; 6d) | tumor size (Fig 5d&5e), individual mice (MOLM14 xenografts; 8d) | tumor size (Fig 5d&5e), individual mice (MOLM14 xenografts; 10d) | tumor size (Fig 5d&5e), individual mice (MOLM14 xenografts; 12d) | other results
1 | COC(=O)C12OCC34C(CC5C(C)=C(OC(=O)C(N)Cc6ccccc6)C(=O)CC5(C)C3C(O)C1O)OC(=O)C(OC(=O)C=C(C)C)C24 (stereo not drawn) [#14] | 25.66 and 26.32 and 25.88 and 25.26 and 25.69 | 26.84 and 26.83 and 25.73 | 30.22 and 27.96 | 31.1 and 27.6 | 31.54 and 29.03 and 29.06 and 28.16 and 27.82 and 27.45 | 32.14 and 29.64 and 29.88 and 28.65 and 28.04 | 33.33 and 31.09 and 31.73 and 30.06 and 30.08 | 16702 and 18584 | 14138 and 13170 | 9796 and 9988 | 7942 and 8235 | 10547 and 15443 | significantly inhibit | 146.154 and 92.4556 and 61.5288 and 118.617 and 111.079 and 97.6091 | 155.286 and 83.3599 and 78.5598 and 123.615 and 132.099 and 148.619 | 205.624 and 120.823 and 83.03 and 205.911 and 121.618 and 141.386 | 215.948 and 214.154 and 405.903 and 288.793 and 65.298 and 81.0923 | 654.828 and 372.84 and 268.332 and 549.466 and 314.977 and 266.348 | 1094.41 and 794.074 and 511.007 and 817.839 and 517.393 and 583.109 | 1848.1 and 1147.5 and 978.929 and 1531.82 and 970.42 and 1008.11 | IC50 (Raji cells): 39.2 nM
2 | COC(=O)C12OCC34C(CC5C(C)=C(OC(=O)C6CCCN6)C(=O)CC5(C)C3C(O)C1O)OC(=O)C(OC(=O)C=C(C)C)C24 (stereo not drawn) [#31] | 25.68 and 24.55 and 25.16 and 23.48 | 27.27 and 26.58 and 25.38 and 25.93 and 25.43 and 23.7 | 26.97 and 26.67 and 25.81 and 25.44 and 25.69 | 27.97 and 26.96 and 26.09 | 28.38 and 27.82 and 26.73 and 25.66 | 28.24 and 27.47 and 25.9 and 26.82 and 26.06 | 29.56 and 29.11 and 26.31 and 27.31 | 21395 and 22004 | 12976 and 10747 | 7357 and 6947 | 8946 and 8046 | 8102 and 7279 | significantly inhibit | 74.2529 and 62.0281 and 101.973 and 60.5009 and 91.8956 and 82.6996 | 107.191 and 120.034 and 71.2216 and 100.836 and 98.4479 and 88.2667 | 99.5578 and 195.79 and 71.7513 and 67.0262 and 52.5262 and 97.4505 | 95.2698 and 78.8527 and 143.077 and 70.9567 and 158.17 and 228.179 | 324.747 and 668.944 and 318.873 and 96.919 and 128.11 and 346.937 | 458.137 and 927.585 and 502.969 and 200.67 and 236.721 and 666.334 | 959.947 and 1557.75 and 485.372 and 249.92 and 359.5 and 1074.17 | IC50 (Raji cells): 36.5 nM
